molecular target: Opioid receptors; mu/kappa/delta (Homo sapiens, UniProt P41145+P41143+P35372); test: Displacement of 0.5 nM [3H]bremazocine from opioid receptor sites in guinea pig membranes; assay type: cell membranes, Cavia porcellus; conditions: target entry is the homologue from another species

Q: With `C=C1C[C@@H](CN2CC[C@@]3(C)c4cc(O)ccc4C[C@H]2[C@H]3C)OC1=O` as the compound, how does the IC50 read?
A: The IC50 was 1300 nM.

Q: For `C[C@@H]1[C@@H]2Cc3ccc(O)cc3[C@]1(C)CCN2C[C@@H]1CCCO1`, which IC50 is on record?
A: The IC50 was 1000 nM.

molecular target: Kappa-type opioid receptor (Cavia porcellus, UniProt P41144); test: Displacement of [3H]bremazocine from opioid receptor kappa of guinea pig membrane.; conditions: not given
Sequence (P41144 whole entry): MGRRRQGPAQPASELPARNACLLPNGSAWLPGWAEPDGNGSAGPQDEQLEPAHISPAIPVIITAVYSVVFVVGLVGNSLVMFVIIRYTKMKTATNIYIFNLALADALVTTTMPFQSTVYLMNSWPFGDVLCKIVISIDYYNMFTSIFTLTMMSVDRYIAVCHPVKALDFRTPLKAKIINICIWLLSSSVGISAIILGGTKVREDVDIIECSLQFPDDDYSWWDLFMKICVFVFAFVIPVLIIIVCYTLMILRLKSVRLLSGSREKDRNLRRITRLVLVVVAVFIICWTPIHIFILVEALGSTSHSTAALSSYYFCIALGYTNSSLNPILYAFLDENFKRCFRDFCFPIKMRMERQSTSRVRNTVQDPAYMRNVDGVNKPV

Q: Which IC50 does the source give for `C[C@H]1[C@H]2Cc3ccc(O)cc3[C@@]1(C)CCN2C[C@H]1CCCO1` here?
A: Its IC50 is 70 nM.

Q: For `C[C@H]1[C@H]2Cc3ccc(O)cc3[C@@]1(C)CCN2C[C@@H]1CCCO1`, which IC50 is on record?
A: The IC50 was 1.7 nM.

Q: For `CC[C@H]1[C@H]2Cc3ccc(O)cc3[C@@]1(CC)CCN2Cc1ccoc1`, which IC50 is on record?
A: The IC50 was 1.6 nM.

Q: With `C[C@H]1[C@H]2Cc3ccc(O)cc3[C@@]1(C)CCN2C[C@H]1C=CC(=O)O1` as the compound, how does the IC50 read?
A: The IC50 was 74 nM.

Q: Which IC50 does the source give for `C[C@H]1[C@H]2Cc3ccc(O)cc3[C@@]1(C)CCN2C[C@H]1CCC(=O)O1` here?
A: Its IC50 is 400 nM.

Q: Which IC50 does the source give for `C=C1C[C@@H](CN2CC[C@]3(C)c4cc(O)ccc4C[C@@H]2[C@@H]3C)OC1=O` here?
A: The IC50 was 400 nM.

Q: For `C[C@H]1[C@H]2Cc3ccc(O)cc3[C@@]1(C)CCN2C[C@@H]1C=CC(=O)O1`, which IC50 is on record?
A: Its IC50 is 5.4 nM.

Q: With `C[C@H]1[C@H]2Cc3ccc(O)cc3[C@@]1(C)CCN2C[C@@H]1CCC(=O)O1` as the compound, how does the IC50 read?
A: The IC50 was 7.3 nM.

Q: With `C[C@H]1[C@H]2Cc3ccc(O)cc3[C@]1(C)CCN2Cc1ccco1` as the compound, how does the IC50 read?
A: The IC50 was 5.7 nM.

molecular target: not listed separately; test: Displacement of [3H]bremazocine from opioid receptor of guinea pig membrane; set-up: species or system Cavia porcellus; conditions: not given

Q: For `C[C@H]1[C@H]2Cc3ccc(O)cc3[C@@]1(C)CCN2C[C@H]1CCCO1`, which IC50 is on record?
A: Its IC50 is 84 nM.

Q: With `C[C@H]1[C@H]2Cc3ccc(O)cc3[C@@]1(C)CCN2C[C@@H]1CCCO1` as the compound, how does the IC50 read?
A: Its IC50 is 2.3 nM.

Q: For `CC[C@H]1[C@H]2Cc3ccc(O)cc3[C@@]1(CC)CCN2Cc1ccoc1`, which IC50 is on record?
A: The IC50 was 2.9 nM.

Q: Which IC50 does the source give for `C=C1C[C@H](CN2CC[C@]3(C)c4cc(O)ccc4C[C@@H]2[C@@H]3C)OC1=O` here?
A: Its IC50 is > 3000 nM.

Q: Which IC50 does the source give for `C[C@H]1[C@H]2Cc3ccc(O)cc3[C@@]1(C)CCN2C[C@H]1C=CC(=O)O1` here?
A: Its IC50 is 89 nM.

Q: Which IC50 does the source give for `C=C1C[C@H](CN2CC[C@@]3(C)c4cc(O)ccc4C[C@H]2[C@H]3C)OC1=O` here?
A: The IC50 was 1800 nM.

Q: For `C[C@H]1[C@H]2Cc3ccc(O)cc3[C@@]1(C)CCN2C[C@H]1CCC(=O)O1`, which IC50 is on record?
A: The IC50 was 620 nM.

Q: Which IC50 does the source give for `C=C1C[C@@H](CN2CC[C@]3(C)c4cc(O)ccc4C[C@@H]2[C@@H]3C)OC1=O` here?
A: The IC50 was 380 nM.

Q: With `C[C@H]1[C@H]2Cc3ccc(O)cc3[C@@]1(C)CCN2C[C@@H]1C=CC(=O)O1` as the compound, how does the IC50 read?
A: Its IC50 is 7.4 nM.

Q: With `C[C@H]1[C@H]2Cc3ccc(O)cc3[C@@]1(C)CCN2C[C@@H]1CCC(=O)O1` as the compound, how does the IC50 read?
A: Its IC50 is 12 nM.

Q: For `CC[C@@H]1[C@@H]2Cc3ccc(O)cc3[C@]1(CC)CCN2Cc1ccoc1`, which IC50 is on record?
A: Its IC50 is 2200 nM.

Q: For `C[C@H]1[C@H]2Cc3ccc(O)cc3[C@]1(C)CCN2Cc1ccco1`, which IC50 is on record?
A: Its IC50 is 6.8 nM.

Q: For `C=CCN1CC[C@]23c4c5ccc(O)c4O[C@H]2C(=O)CC[C@@]3(O)[C@H]1C5` [NALOXONE], which IC50 is on record?
A: The IC50 was 23 nM.

Q: With `O=C1CC[C@@]2(O)[C@H]3Cc4ccc(O)c5c4[C@@]2(CCN3CC2CC2)[C@H]1O5` [NALTREXONE] as the compound, how does the IC50 read?
A: Its IC50 is 5.7 nM.

Source: ChEMBL document CHEMBL1125178, “Electrophilic gamma-lactone kappa-opioid receptor probes. Analogues of 2'-hydroxy-2-tetrahydrofurfuryl-5,9-dimethyl-6,7-benzomorphan diastereomers” (J Med Chem, 1991)
